# Assay results from ChEMBL document CHEMBL1201862, “PubChem BioAssay data set” (2004).
#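 How tested: cells in 96-well plates exposed to compound for 48 hours at five concentrations. GI50 marks 50% less growth.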 Activity calls are given as the source filed them. Rule as the data show it: active = GI50 up to about 1.1 µM and inactive = higher.
# Key:
# Assay in all cases: NCI anticancer screen, dose series, 48 h
# EKVX = test system: EKVX
# T47D = test system: T47D
# KM12 = test system: KM12
# SNB-75 = test system: SNB-75
# SF-539 = test system: SF-539
# LOX IMVI = test system: LOX IMVI
# TK-10 = test system: TK-10
# MOLT-4 = test system: MOLT-4
# U-251 = test system: U-251
# CAKI-1 = test system: CAKI-1
# MCF7 = test system: MCF7
# K562 = test system: K562
# NCI-H522 = test system: NCI-H522
# SN12C = test system: SN12C
# SK-MEL-2 = test system: SK-MEL-2
# Malme-3M = test system: Malme-3M
# NCI-H23 = test system: NCI-H23
# CCRF-CEM = test system: CCRF-CEM
# HCT-116 = test system: HCT-116
# OVCAR-8 = test system: OVCAR-8
SMILES,GI50 (EKVX),GI50 (T47D),GI50 (KM12),GI50 (SNB-75),GI50 (SF-539),GI50 (LOX IMVI),GI50 (TK-10),GI50 (MOLT-4),GI50 (U-251),GI50 (CAKI-1),GI50 (MCF7),GI50 (K562),GI50 (NCI-H522),GI50 (SN12C),GI50 (SK-MEL-2),GI50 (Malme-3M),GI50 (NCI-H23),GI50 (CCRF-CEM),GI50 (HCT-116),GI50 (OVCAR-8)
S=C(NCc1ccccc1)N/N=C/c1ccccn1,1.82 µM (inactive),0.161 µM (active),4.91 µM (inactive),3.91 µM (inactive),4.6 µM (inactive),1.53 µM (inactive),12.9 µM (inactive),0.0612 µM (active),2.97 µM (inactive),0.335 µM (active),0.834 µM (active),0.0815 µM (active),0.982 µM (active),4.31 µM (inactive),14.1 µM (inactive),1.45 µM (inactive),3.56 µM (inactive),< 0.0409 µM (active),0.34 µM (active),1.15 µM (inactive)
CC(=O)CCNc1ccc(-c2cc(-c3ccc(N(C)C)cc3)nc3ccc4ccccc4c23)cc1,> 51.5 µM (inactive),9.48 µM (inactive),27.5 µM (inactive),9.84 µM (inactive),> 53.7 µM (inactive),> 100 µM (inactive),> 100 µM (inactive),6.76 µM (inactive),> 84.9 µM (inactive),> 65.8 µM (inactive),27.1 µM (inactive),19.6 µM (inactive),> 100 µM (inactive),33.5 µM (inactive),51.1 µM (inactive),> 67.8 µM (inactive),> 100 µM (inactive),8.07 µM (inactive),18.5 µM (inactive),> 100 µM (inactive)
NS(=O)(=O)c1nn2c(Br)c(-c3ccccc3)nc2s1,15.8 µM (inactive),3.66 µM (inactive),4.85 µM (inactive),5.18 µM (inactive),1.96 µM (inactive),1.95 µM (inactive),6.37 µM (inactive),1.61 µM (inactive),4.59 µM (inactive),3.03 µM (inactive),3.95 µM (inactive),2.2 µM (inactive),1.61 µM (inactive),2.92 µM (inactive),4.52 µM (inactive),3.96 µM (inactive),3.48 µM (inactive),2.65 µM (inactive),2.04 µM (inactive),2.38 µM (inactive)
COC12CCCN1c1ccn(Cc3ccccc3)c(=O)c1C2=O (stereo unspecified),> 100 µM (inactive),> 100 µM (inactive),> 100 µM (inactive),> 100 µM (inactive),> 100 µM (inactive),> 100 µM (inactive),> 100 µM (inactive),28.7 µM (inactive),> 100 µM (inactive),> 100 µM (inactive),> 100 µM (inactive),> 100 µM (inactive),> 100 µM (inactive),> 100 µM (inactive),> 100 µM (inactive),> 100 µM (inactive),> 100 µM (inactive),82 µM (inactive),> 100 µM (inactive),> 100 µM (inactive)
CCC(=O)OCc1ccc2oc(=O)c(C(=O)Oc3cncc(Cl)c3)cc2c1,> 100 µM (inactive),98.6 µM (inactive),> 100 µM (inactive),79.8 µM (inactive),> 100 µM (inactive),> 100 µM (inactive),97.5 µM (inactive),30 µM (inactive),> 100 µM (inactive),> 100 µM (inactive),76.4 µM (inactive),20.6 µM (inactive),29.2 µM (inactive),42.7 µM (inactive),> 100 µM (inactive),66.7 µM (inactive),52.2 µM (inactive),< 0.01 µM (active),80 µM (inactive),> 100 µM (inactive)
COc1ccc(/C=C2\CN(C)C/C(=C\c3ccc(OC)c(OC)c3OC)C2=O)c(OC)c1OC,1.67 µM (inactive),1.05 µM (active),0.0859 µM (active),0.973 µM (active),0.102 µM (active),0.115 µM (active),1.01 µM (active),0.0685 µM (active),0.0333 µM (active),0.485 µM (active),0.0507 µM (active),0.0192 µM (active),0.184 µM (active),0.101 µM (active),0.363 µM (active),0.171 µM (active),0.0579 µM (active),0.019 µM (active),0.111 µM (active),0.07 µM (active)
CN(C)CCc1c2c(nc3ccccc13)C(=O)c1cccnc1C2=O,1.55 µM (inactive),1.83 µM (inactive),0.173 µM (active),0.42 µM (active),0.168 µM (active),< 0.0476 µM (active),1.3 µM (inactive),2.57 µM (inactive),0.176 µM (active),0.582 µM (active),0.122 µM (active),0.154 µM (active),0.175 µM (active),0.277 µM (active),1.17 µM (inactive),0.49 µM (active),0.322 µM (active),0.682 µM (active),0.0838 µM (active),0.184 µM (active)
COc1cc(/C=C/C=C2\CCC/C(=C\C=C\c3ccc(O)c(OC)c3)C2=O)ccc1O,7.36 µM (inactive),8.32 µM (inactive),24.7 µM (inactive),26.7 µM (inactive),17.5 µM (inactive),7.91 µM (inactive),8.34 µM (inactive),1.01 µM (active),17.7 µM (inactive),7.23 µM (inactive),5.24 µM (inactive),3.06 µM (inactive),0.895 µM (active),17.3 µM (inactive),21.2 µM (inactive),10.6 µM (inactive),11.7 µM (inactive),0.991 µM (active),10.5 µM (inactive),12.6 µM (inactive)
O=C(/C=C/c1ccccc1)Oc1ccc(C(=O)/C=C/c2ccccc2)cc1,13.3 µM (inactive),11 µM (inactive),5.4 µM (inactive),12.5 µM (inactive),3.24 µM (inactive),4.98 µM (inactive),14.5 µM (inactive),11.2 µM (inactive),,13.1 µM (inactive),6.08 µM (inactive),3.4 µM (inactive),11.4 µM (inactive),10.3 µM (inactive),22.4 µM (inactive),> 10 µM (inactive),10.6 µM (inactive),3.3 µM (inactive),9.64 µM (inactive),10.2 µM (inactive)
C/C(=C\COP(=O)(O)OP(=O)(O)O)CCCOCc1ccccc1,> 100 µM (inactive),> 100 µM (inactive),> 100 µM (inactive),> 100 µM (inactive),> 100 µM (inactive),> 100 µM (inactive),> 100 µM (inactive),> 100 µM (inactive),> 100 µM (inactive),> 100 µM (inactive),> 100 µM (inactive),> 100 µM (inactive),> 100 µM (inactive),> 100 µM (inactive),> 100 µM (inactive),> 100 µM (inactive),> 100 µM (inactive),< 0.01 µM (active),> 100 µM (inactive),> 100 µM (inactive)
COC(=O)/C=C1/N=C(N(C)/N=C/c2ccccc2)NC1=O,> 100 µM (inactive),> 100 µM (inactive),> 100 µM (inactive),> 100 µM (inactive),> 100 µM (inactive),> 100 µM (inactive),> 100 µM (inactive),> 100 µM (inactive),,> 100 µM (inactive),> 100 µM (inactive),> 100 µM (inactive),> 100 µM (inactive),> 100 µM (inactive),> 100 µM (inactive),> 100 µM (inactive),> 100 µM (inactive),> 100 µM (inactive),> 100 µM (inactive),> 100 µM (inactive)
CC1=CCS(=O)(=O)C1C(O)C1=C(C)CCCC1(C)C (stereo unspecified),> 100 µM (inactive),45.7 µM (inactive),59.7 µM (inactive),98.4 µM (inactive),> 100 µM (inactive),62.2 µM (inactive),> 100 µM (inactive),51.2 µM (inactive),56.8 µM (inactive),> 100 µM (inactive),50.8 µM (inactive),43.1 µM (inactive),58.6 µM (inactive),> 100 µM (inactive),> 100 µM (inactive),60 µM (inactive),> 100 µM (inactive),71.3 µM (inactive),72.3 µM (inactive),> 100 µM (inactive)
CCCC(=O)N[C@H]1CCc2cc(OC)c(OC)c(OC)c2-c2ccc(SC)c(=O)cc21,51.9 µM (inactive),> 100 µM (inactive),< 0.01 µM (active),< 0.01 µM (active),< 0.01 µM (active),< 0.01 µM (active),< 0.0411 µM (active),< 0.01 µM (active),< 0.01 µM (active),< 0.01 µM (active),< 0.01 µM (active),< 0.01 µM (active),< 0.01 µM (active),< 0.01 µM (active),< 0.01 µM (active),< 0.01 µM (active),< 0.01 µM (active),< 0.0465 µM (active),< 0.01 µM (active),< 0.01 µM (active)
COC(O)C(=O)c1c2c(cc3c1CC1(Cc4cc5c(cc4C1)CCC5)C3)CCC2 (stereo unspecified),22.2 µM (inactive),21.9 µM (inactive),,17.1 µM (inactive),17.3 µM (inactive),7.13 µM (inactive),17.7 µM (inactive),15.8 µM (inactive),11.6 µM (inactive),20.5 µM (inactive),16 µM (inactive),13.2 µM (inactive),17.7 µM (inactive),,16 µM (inactive),16.3 µM (inactive),16.4 µM (inactive),4.33 µM (inactive),8.73 µM (inactive),18.3 µM (inactive)
